Biological target: T1, MLK-7 (Homo sapiens, UniProt Q9NYL2)
T1 construct: GST; His tag; made in house; host or cells: Sf9 insect cells (baculovirus, pVL1392)
Experiment: In vitro assay of purified MLK-7 kinase activity (33P transfer from ATP to myelin basic protein)
Assay type: biochemical
Details: recombinant GST-tagged MLK-7 at 1 nm, 30 uM ATP, 5 uM MBP substrate, 2 hours room temperature; read-out: MLK7 IC50
From the text: In Vitro Assay of Purified Mixed Lineage Kinase 7 (MLK-7) Activity:
Briefly, recombinant glutathione-s-transferase (GST) tagged MLK-7 is expressed in Sf9 cells using a recombinant baculovirus created using baculovirus transfer vector pVL1392 modified to contain a GST and histidine tag. The recombinant protein is purified over a glutathione column and subsequently used for in vitro kinase assays with myelin basic protein (MBP) as the substrate for phosphorylation. The in vitro kinase reaction is run with recombinant MLK-7 at 1 nm and various concentrations of test compound in a reaction mixture containing 2 mM DTT, 30 uM ATP, 5 mM MgCl2, 5 uM MBP, 4% DMSO, 5 uCi 33P in 44 mM HEPES, (pH 7.4). The reaction is carried out for 2 hours at room temperature and then stopped by the addition of phosphoric acid to 5.5%. The phosphorylated MBP is collected on a filter and radioactivity associated with the membrane measured using a scintillation counter. Inhibitors are identified by the ability to reduce the transfer of radioactive phosphate from ATP to MBP compared to controls run without test compound.
IC50 values, defined as the concentration of test compound required to decrease the transfer of radioactive phosphate from ATP to MBP by 50%, are then determined. Ki values (which refers to the dissociation constant of an enzyme-antagonist complex and serves as an index of ligand binding) for each respective test compound can also be calculated by application of the Cheng-Prusoff equation as described in Cheng et al., Relationship Between The Inhibition Constant (Ki) and The Concentration of Inhibitor Which Causes 50% Inhibition (IC50) of an Enzymatic Reaction, Biochem. Pharmacol., 22: […]; (1973).
Representative compounds of the present invention have an IC50 in the MLK-7 kinase assay of ≦10,000 nM Table I (see infra.) provides IC50 data from the afore mentioned MLK-7 kinase assay for a representative sample of the exemplified compounds of the present invention.

T1 sequence (Q9NYL2 1-455 isoform Q9NYL2-2): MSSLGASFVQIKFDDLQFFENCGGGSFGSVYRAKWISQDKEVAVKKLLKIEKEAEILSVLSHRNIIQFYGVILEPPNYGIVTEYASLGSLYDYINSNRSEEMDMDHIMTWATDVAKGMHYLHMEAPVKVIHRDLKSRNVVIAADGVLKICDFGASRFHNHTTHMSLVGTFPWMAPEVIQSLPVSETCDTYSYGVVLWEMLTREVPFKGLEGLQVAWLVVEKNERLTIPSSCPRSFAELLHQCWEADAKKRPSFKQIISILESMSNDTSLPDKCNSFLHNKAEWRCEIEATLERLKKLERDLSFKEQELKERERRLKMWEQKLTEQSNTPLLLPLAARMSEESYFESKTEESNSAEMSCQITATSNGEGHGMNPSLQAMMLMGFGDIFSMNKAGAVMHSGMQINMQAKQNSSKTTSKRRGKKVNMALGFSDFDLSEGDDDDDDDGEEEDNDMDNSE

Clc1cccc(-c2ccc3c(-c4c(-c5ccccn5)nn5c4CCC5)ccnc3c2)c1 [Example 11, 7-(3-Chlorophenyl)-4-(2-Pyridin-2-yl-5,6-dihydro-4H-pyrrolo[1,2-b]pyrazol-3-yl)quinoline Trifluoroacetic Acid]
IC50: ≤ 0.1 µM

Clc1ccc(-c2ccc3c(-c4c(-c5ccccn5)nn5c4CCC5)ccnc3c2)cc1 [Example 12, 7-(4-Chlorophenyl)-4-(2-pyridin-2-yl-5,6-dihydro-4H-pyrrolo[1,2-b]pyrazol-3-yl)quinoline Trifluoroacetic Acid]
IC50: ≤ 0.1 µM

O=[N+]([O-])c1ccc(-c2ccc3c(-c4c(-c5ccccn5)nn5c4CCC5)ccnc3c2)cc1 [Example 14, 7-(4-Nitrophenyl)-4-(2-pyridin-2-yl-5,6-dihydro-4H-pyrrolo[1,2-b]pyrazol-3-yl)quinoline Trifluoroacetic Acid]
IC50: ≤ 0.1 µM

CS(=O)(=O)Nc1cccc(-c2ccc3c(-c4c(-c5ccccn5)nn5c4CCC5)ccnc3c2)c1 [Example 15, N-{3-[4-(2-Pyridin-2-yl-5,6-dihydro-4H-pyrrolo[1,2-b]pyrazol-3-yl)-quinolin-7-yl]-phenyl}methanesulfomamide Trifluoroacetic Acid]
IC50: ≤ 0.1 µM

CS(=O)(=O)Nc1ccc(-c2ccc3c(-c4c(-c5ccccn5)nn5c4CCC5)ccnc3c2)cc1 [Example 16, N-{4-[4-(2-Pyridin-2-yl-5,6-dihydro-4H-pyrrolo[1,2-b]pyrazol-3-yl)quinolin-7-yl]phenyl}methanesulfonamide Trifluoroacetic Acid]
IC50: ≤ 0.1 µM

CCOc1ccccc1-c1ccc2c(-c3c(-c4ccccn4)nn4c3CCC4)ccnc2c1 [Example 17, 7-(2-Ethoxyphenyl)-4-(2-pyridin-2-yl-5,6-dihydro-4H-pyrrolo[1,2-b]pyrazol-3-yl)quinoline Trifluoroacetic Acid]
IC50: ≤ 10 µM

CCOc1cccc(-c2ccc3c(-c4c(-c5ccccn5)nn5c4CCC5)ccnc3c2)c1 [Example 18, 7-(3-Ethoxyphenyl)-4-(2-pyridin-2-yl-5,6-dihydro-4H-pyrrolo[1,2-b]pyrazol-3-yl)quinoline Trifluoroacetic Acid]
IC50: ≤ 0.1 µM

CCOc1ccc(-c2ccc3c(-c4c(-c5ccccn5)nn5c4CCC5)ccnc3c2)cc1 [Example 19, 7-(4-Ethoxyphenyl)-4-(2-pyridin-2-yl-5,6-dihydro-4H-pyrrolo[1,2-b]pyrazol-3-yl)quinoline Trifluoroacetic Acid]
IC50: ≤ 0.1 µM

COc1ccc(-c2ccc3c(-c4c(-c5ccccn5)nn5c4CCC5)ccnc3c2)cc1 [Example 20, 7-(4-Methoxyphenyl)-4-(2-pyridin-2-yl-5,6-dihydro-4H-pyrrolo[1,2-b]pyrazol-3-yl)quinoline Trifluoroacetic Acid]
IC50: ≤ 0.1 µM

Cc1cc(-c2ccc3c(-c4c(-c5ccccn5)nn5c4CCC5)ccnc3c2)ccc1F [Example 21, 7-(4-Fluoro-3-methylphenyl)-4-(2-pyridin-2-yl-5,5-dihydro-4H-pyrrolo[1,2-b]pyrazol-3-yl)quinoline Trifluoroacetic Acid]
IC50: ≤ 1 µM

Cc1cc(F)ccc1-c1ccc2c(-c3c(-c4ccccn4)nn4c3CCC4)ccnc2c1 [Example 22, 7-(4-Fluoro-2-methylphenyl)-4-(2-pyridin-2-yl-5,6-dihydro-4H-pyrrolo[1,2-b]pyrazol-3-yl)quinoline Trifluoroacetic Acid]
IC50: ≤ 1 µM

Brc1ccc(-c2ccc3c(-c4c(-c5ccccn5)nn5c4CCC5)ccnc3c2)cc1 [Example 23, 7-(4-Bromophenyl)-4-(2-pyridin-2-yl-5,6-dihydro-4H-pyrrolo[1,2-b]pyrazol-3-yl)quinoline Trifluoroacetic Acid]
IC50: ≤ 0.1 µM

CCSc1ccc(-c2ccc3c(-c4c(-c5ccccn5)nn5c4CCC5)ccnc3c2)cc1 [Example 24, 7-(4-Ethylsulfanylphenyl)-4-(2-pyridin-2-yl-5,6-dihydro-4H-pyrrolo[1,2-b]pyrazol-3-yl)quinoline Trifluoroacetic Acid]
IC50: ≤ 1 µM

CSc1ccc(-c2ccc3c(-c4c(-c5ccccn5)nn5c4CCC5)ccnc3c2)cc1 [Example 25, 7-(4-Methylsulfanylphenyl)-4-(2-pyridin-2-yl-5,6-dihydro-4H-pyrrolo[1,2-b]pyrazol-3-yl)quinoline Trifluoroacetic Acid]
IC50: ≤ 1 µM

N#Cc1ccc(-c2ccc3c(-c4c(-c5ccccn5)nn5c4CCC5)ccnc3c2)cc1 [Example 26, 4-[4-(2-Pyridin-2-yl-5,6-dihydro-4H-pyrrolo[1,2-b]pyrazol-3-yl)quinolin-7-yl]benzonitrile Trifluroacetic Acid]
IC50: ≤ 0.1 µM

c1ccc(-c2nn3c(c2-c2ccnc4cc(-c5ccc6[nH]ccc6c5)ccc24)CCC3)nc1 [Example 27, 7-(1H-Indol-5-yl)-4-(2-pyridin-2-yl-5,6-dihydro-4H-pyrrolo[1,2-b]pyrazol-3-yl)quinoline Ditrifluoroacetic Acid]
IC50: ≤ 0.1 µM

CC(=O)c1ccc(-c2ccc3c(-c4c(-c5ccccn5)nn5c4CCC5)ccnc3c2)cc1 [Example 28, 1-{4-[4-(2-Pyridin-2-yl-5,6-dihydro-4H-pyrrolo[1,2-b]pyrazol-3-yl)quinolin-7-yl]phenyl}ethanone Trifluoroacetic Acid]
IC50: ≤ 0.1 µM

O=C(O)CCc1ccc(-c2ccc3c(-c4c(-c5ccccn5)nn5c4CCC5)ccnc3c2)cc1 [Example 30, 3-{4-[4-(2-Pyridin-2-yl-5,6-dihydro-4H-pyrrolo[1,2-b]pyrazol-3-yl)quinolin-7-yl]phenyl}propionic Acid Trifluoroacetic Acid]
IC50: ≤ 0.1 µM

COc1ccc(-c2ccc3c(-c4c(-c5ccccn5)nn5c4CCC5)ccnc3c2)cc1C [Example 32, 7-(4-Methoxy-3-methylphenyl)-4-(2-Pyridin-2-yl-5,6-dihydro-4H-pyrrolo[1,2-b]pyrazol-3-yl)quinoline Trifluoroacetic Acid]
IC50: ≤ 1 µM

Cc1ccc(-c2ccc3c(-c4c(-c5ccccn5)nn5c4CCC5)ccnc3c2)cc1N [Example 33, 2-Methyl-5-[4-(2-Pyridin-2-yl-5,6-dihydro-4H-pyrrolo[1,2-b]pyrazol-3-yl)quinolin-7-yl]phenylamine Ditrifluoroacetic Acid]
IC50: ≤ 0.1 µM

c1ccc(-c2nn3c(c2-c2ccnc4cc(-c5ccncc5)ccc24)CCC3)nc1 [Example 34, 7-Pyridin-4-yl-4-(2-Pyridin-2-yl-5,6-dihydro-4H-pyrrolo[1,2-b]pyrazol-3-yl)quinoline Ditrifluoroacetic Acid]
IC50: ≤ 0.1 µM

c1ccc(-c2nn3c(c2-c2ccnc4cc(-c5cccnc5)ccc24)CCC3)nc1 [Example 35, 7-Pyridin-3-yl-4-(2-Pyridin-2-yl-5,6-dihydro-4H-pyrrolo[1,2-b]pyrazol-3-yl)quinoline Ditrifluoroacetic Acid]
IC50: ≤ 0.1 µM

O=[N+]([O-])c1ccccc1-c1ccc2c(-c3c(-c4ccccn4)nn4c3CCC4)ccnc2c1 [Example 36, 7-(2-Nitrophenyl)-4-(2-pyridin-2-yl-5,6-dihydro-4H-pyrrolo[1,2-b]pyrazol-3-yl)quinoline Trifluoroacetic Acid]
IC50: ≤ 1 µM

CC(=O)Nc1cccc(-c2ccc3c(-c4c(-c5ccccn5)nn5c4CCC5)ccnc3c2)c1 [Example 37, N-{3-[4-(2-pyridin-2-yl-5,6-dihydro-4H-pyrrolo[1,2-b]pyrazol-3-yl)quinolin-7-yl]phenyl}-acetamide Trifluoroacetic Acid]
IC50: ≤ 0.1 µM

C[S+]([O-])c1ccc(-c2ccc3c(-c4c(-c5ccccn5)nn5c4CCC5)ccnc3c2)cc1 (centres unmarked) [Example 38, 7-(4-Methanesulfinylphenyl)-4-(2-pyridin-2-yl-5,6-dihydro-4H-pyrrolo[1,2-b]pyrazol-3-yl)quinoline Trifluoroacetic Acid]
IC50: ≤ 0.1 µM

c1ccc(-c2nn3c(c2-c2ccnc4cc(-c5ccc6c(c5)OCO6)ccc24)CCC3)nc1 [Example 40, 7-Benzo[1,3]dioxol-5-yl-4-(2-pyridin-2-yl-5,6-dihydro-4H-pyrrolo[1,2-b]pyrazol-3-yl)quinoline Trifluoroacetic Acid]
IC50: ≤ 0.1 µM

O=C(O)c1ccc(-c2ccc3c(-c4c(-c5ccccn5)nn5c4CCC5)ccnc3c2)cc1 [Example 41, 4-[4-(2-pyridin-2-yl-5,6-dihydro-4H-pyrrolo[1,2-b]pyrazol-3-yl)quinolin-7-yl]benzoic Acid Trifluoroacetic Acid]
IC50: ≤ 0.1 µM

FC(F)(F)c1cc(-c2ccc3c(-c4c(-c5ccccn5)nn5c4CCC5)ccnc3c2)cc(C(F)(F)F)c1 [Example 42, 7-(3,5-Bis-trifluromethylphenyl)-4-(2-pyridin-2-yl-5,6-dihydro-4H-pyrrolo[1,2-b]pyrazol-3-yl)quinoline Trifluoroacetic Acid]
IC50: ≤ 10 µM

O=C(O)c1cccc(-c2ccc3c(-c4c(-c5ccccn5)nn5c4CCC5)ccnc3c2)c1 [Example 43, 3-[4-(2-pyridin-2-yl-5,6-dihydro-4H-pyrrolo[1,2-b]pyrazol-3-yl)quinolin-7-yl]benzoic Acid Trifluoroacetic Acid]
IC50: ≤ 0.1 µM
